Measured values from patent publication US8772323B2, “Benzoxazole- and tetrahydrobenzoxazole-substituted pyridazinones as GPR119 agonists” (Boehringer Ingelheim International GmbH, priority 2010, dated 2014).
Structures can show the parent of a compound that is named as a salt.

Target: human GPR119 (Homo sapiens (Human), UniProt Q8TDV5)
Assay: AlphaScreen cAMP assay in Min-6/hGPR119 cells (GPR119 activation, intracellular cAMP)
Format: cell-based
Conditions: MIN6 cells stably transfected with human GPR119; 45 minutes' incubation at RT; AlphaScreen cAMP Assay Kit
Experimental: The compounds of formula I according to the invention are GPR119 agonists. The effect of the compounds on the activation of GPR119 and on the stimulation of intracellular cAMP concentration is determined using the AlphaScreen cAMP Assay Kit (Cat. No. #6760625R) made by PerkinElmer.
MIN6 cells [Miyazaki J et al. Endocrinology. 1990 July; 127(1):126-32] were stably transfected with an expression vector for human GPR119 cDNA (Acc. No. NP_848566). Min-6/hGPR119 cells are cultured in DMEM, 10% FBS, 50 μM β-mercaptoethanol, 0.3 mg/mL Geniticin, 2 mM GlutaMAX at 37° C. 5% CO2. For the assay, the cells are placed in Optiplates (white, 384-well, 160W-barcoded, TC, sterile with lid, Cat. No. #6007688 (Perkin Elmer); 10000 cells/well; 50 μl). The plates covered with lids are then incubated for 24 hours at 37° C./5% CO2.
After the medium has been sucked out of the wells completely, 10 μl of the test compound are added, the compounds are diluted beforehand with stimulating buffer (140 mM NaCl, 3.6 mM KCl, 0.5 mM NaH2PO4, 0.5 mM MgSO4, 1.5 mM CaCl2, 10 mM Hepes, 5 mM NaHCO3; pH 7.4. 0.5 mM IBMX and 0.1% BSA, the final DMSO concentration is 1%). After 45 minutes' incubation at RT, the cAMP concentrations are determined using the AlphaScreen cAMP Assay Kit (Cat. No. #6760625R from PerkinElmer).

Sequence of human GPR119 (Q8TDV5 whole entry): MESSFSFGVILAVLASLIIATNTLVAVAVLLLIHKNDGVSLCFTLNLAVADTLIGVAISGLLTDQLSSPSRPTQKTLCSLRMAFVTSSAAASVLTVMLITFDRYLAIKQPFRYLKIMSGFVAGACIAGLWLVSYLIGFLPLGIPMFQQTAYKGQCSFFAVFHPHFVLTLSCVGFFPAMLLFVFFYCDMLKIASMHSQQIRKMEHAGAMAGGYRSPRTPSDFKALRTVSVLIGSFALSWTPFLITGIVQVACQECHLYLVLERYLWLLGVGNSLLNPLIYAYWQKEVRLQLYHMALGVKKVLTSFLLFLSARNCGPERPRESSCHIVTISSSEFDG

SMILES | EC50
O=C1NCC(c2ccc3nc(-c4ccccc4)oc3c2)=NN1 [Example 143, 6-(2-phenyl-benzoxazol-6-yl)-4,5-dihydro-2H-[1,2,4]triazin-3-one] | 397 nM
CCC1CC(=O)NN=C1c1ccc2nc(-c3ccc(OCc4ncccn4)cc3)oc2c1 (centres unmarked) [Example 40, 5-ethyl-6-{2-[4-(pyrimidin-2-ylmethoxy)-phenyl]-benzoxazol-6-yl}-4,5-dihydro-2H-pyridazin-3-one] | 275 nM
CCC[C@H]1C(=O)NN=C(c2ccc3nc(-c4cc(C)oc4C)oc3c2)[C@@H]1C (relative stereo) [Example 189, trans-6-[2-(2,5-dimethyl-furan-3-yl)-benzoxazol-6-yl]-5-methyl-4-propyl-4,5-dihydro-2H-pyridazin-3-one] | 127 nM
CCC1CC(=O)NN=C1c1ccc2nc(-c3ccc(OC(C)CN4CCCC4)cc3)oc2c1 (centres unmarked) [Example 210, 5-ethyl-6-[2-(4-{[1-(pyrrolidin-1-yl)propan-2-yl]oxy}phenyl)-1,3-benzoxazol-6-yl]-2,3,4,5-tetrahydropyridazin-3-one] | 590 nM
CC[C@H]1C(c2ccc3nc(-c4ccccc4)oc3c2)=NNC(=O)[C@H]1C [Example 146, (4S,5R)-5-ethyl-4-methyl-6-(2-phenyl-1,3-benzoxazol-6-yl)-2,3,4,5-tetrahydropyridazin-3-one] | 8850 nM
CCC1CC(=O)NN=C1c1ccc2nc(-c3ccc(OCc4nc(C(C)C)no4)cc3)oc2c1 (centres unmarked) [Example 50, 5-ethyl-6-{2-[4-(3-isopropyl-[1,2,4]oxadiazol-5-ylmethoxy)-phenyl]-benzoxazol-6-yl}-4,5-dihydro-2H-pyridazin-3-one] | 223 nM
CCC1CC(=O)NN=C1c1ccc2nc(-c3ccc(OCCN4CCN(C)CC4)cc3)oc2c1 (centres unmarked) [Example 44, 5-ethyl-6-(2-{4-[2-(4-methyl-piperazin-1-yl)-ethoxy]-phenyl}-benzoxazol-6-yl)-4,5-dihydro-2H-pyridazin-3-one dihydrochloride] | 1090 nM
CCC1CC(=O)NN=C1c1ccc2nc(-c3ccc(OC(C)(C)CN4CCCC4)cc3)oc2c1 (centres unmarked) [Example 228, 6-{2-[4-(1,1-dimethyl-2-pyrrolidin-1-yl-ethoxy)-phenyl]-benzoxazol-6-yl}-5-ethyl-4,5-dihydro-2H-pyridazin-3-one] | 549 nM
CCC[C@H]1C(=O)NN=C(c2ccc3nc(-c4ccc(OC(C)C)cc4)oc3c2)[C@@H]1C [Example 260, (4R,5R)-5-methyl-6-{2-[4-(propan-2-yloxy)phenyl]-1,3-benzoxazol-6-yl}-4-propyl-2,3,4,5-tetrahydropyridazin-3-one] | 24 nM
CCC[C@@H]1C(=O)NN=C(c2ccc3nc(-c4ccc(OCCN5CCCCC5)cc4)oc3c2)[C@H]1C (stereo in doubt) [Example 173, trans-5-methyl-6-{2-[4-(3-piperidin-1-yl-ethoxy)-phenyl]-benzoxazol-6-yl}-4-propyl-4,5-dihydro-2H-pyridazin-3-one] | 218 nM
CCC[C@H]1C(=O)NN=C(c2ccc3nc(-c4ccccc4)oc3c2)[C@@H]1C [Example 196, (4R,5R)-5-methyl-6-(2-phenyl-1,3-benzoxazol-6-yl)-4-propyl-2,3,4,5-tetrahydropyridazin-3-one] | 39 nM
CCC1CC(=O)NN=C1c1ccc2nc(-c3ccc(OC)c(F)c3)oc2c1 (centres unmarked) [Example 98, 5-ethyl-6-[2-(3-fluoro-4-methoxy-phenyl)-benzoxazol-6-yl]-4,5-dihydro-2H-pyridazin-3-one] | 294 nM
Cc1c(C2=NNC(=O)C3CC23)ccc2nc(-c3ccccc3)oc12 (centres unmarked) [Example 6, 5-(7-methyl-2-phenyl-benzoxazol-6-yl)-3,4-diaza-bicyclo[4.1.0]hept-4-en-2-one] | 1700 nM
CCC1CC(=O)NN=C1c1ccc2nc(-c3ccc(CCc4ccccc4)cc3)oc2c1 (centres unmarked) [Example 76, 5-ethyl-6-[2-(4-phenethyl-phenyl)-benzoxazol-6-yl]-4,5-dihydro-2H-pyridazin-3-one] | 245 nM
